Data from patent publication US7417068B2, “EP4 receptor antagonists” (Asterand UK Limited, priority 2003, dated 2008).

How the values were obtained:
human EP3 receptor = molecular target: T1, human EP3 receptor (Homo sapiens, UniProt P43115); assay: Binding ability to human EP receptors ([3H]PGE2 displacement), EP3; conditions: membranes from cells stably transfected with human EP3 receptor; 2.5 nM [3H]PGE2; Cheng-Prusoff from IC50; read-out: pKi EP3 (converted)
T1 construct: expressed in transfected cells
T1 sequence (P43115 1-390): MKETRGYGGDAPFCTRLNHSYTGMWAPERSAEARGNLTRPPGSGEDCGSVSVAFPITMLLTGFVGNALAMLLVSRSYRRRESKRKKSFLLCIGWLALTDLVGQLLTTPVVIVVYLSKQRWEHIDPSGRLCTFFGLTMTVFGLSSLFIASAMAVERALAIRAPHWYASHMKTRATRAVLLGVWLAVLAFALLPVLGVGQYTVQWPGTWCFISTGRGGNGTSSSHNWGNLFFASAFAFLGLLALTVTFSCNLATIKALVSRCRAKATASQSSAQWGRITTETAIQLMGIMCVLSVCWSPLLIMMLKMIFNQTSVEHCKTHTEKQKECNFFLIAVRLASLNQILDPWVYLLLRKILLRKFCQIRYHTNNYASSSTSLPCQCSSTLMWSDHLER
Description: (§1) Membranes were prepared from cells stably transfected with human EP receptor cDNA. In brief, cells were cultured to confluency, scraped from culture flasks, and centrifuged (800 g, 8 minutes, 4° C.). Cells were twice washed in ice cold homogenisation buffer containing 10 mMTris-HCl, 1 mM EDTA.2Na, 250 mM sucrose, 1 mM PMSF, 0.3 mM indomethacin, pH 7.4, homogenised and re-centrifuged as before. The supernatant was stored on ice and pellets re-homogenised and re-spun. Supernatants were pooled and centrifuged at 40000 g, 10 minutes, 4° C. Resultant membrane pellets were stored at −80° C. until use.
(§2) For assay, membranes expressing human EP4, EP3, EP2 or EP1 receptors were incubated in Millipore (MHVBN45) plates containing assay buffer, radiolabelled [^3H]PGE2 and 0.1 to 10 000 nM concentrations of compounds. Incubations were performed at suitable temperatures and for suitable times to allow equilibrium to be reached. Non-specific binding was determined in the presence of 10 uM PGE2. Bound and free radiolabel was separated by vacuum manifold filtration using appropriate wash buffers, and bound radiolabel was determined by scintillation counting. Constituents of each of the buffers are included in table 1 below.
(§3) The affinity or pKi of each compound for each receptor was calculated from the concentration causing 50% radioligand displacement (IC50) using the Cheng-Prusoff equation: […]

human EP4 receptor = molecular target: T2, human EP4 receptor (Homo sapiens, UniProt P35408); assay: Binding ability to human EP receptors ([3H]PGE2 displacement), EP4; conditions: membranes from cells stably transfected with human EP4 receptor; 1 nM [3H]PGE2; Cheng-Prusoff from IC50; read-out: pKi EP4 (converted)
T2 construct: expressed in transfected cells
Description: as §1, §2, §3

human EP2 receptor = molecular target: T3, human EP2 receptor (Homo sapiens, UniProt P43116); assay: Binding ability to human EP receptors ([3H]PGE2 displacement), EP2; conditions: membranes from cells stably transfected with human EP2 receptor; 3 nM [3H]PGE2; Cheng-Prusoff from IC50; read-out: pKi EP2 (converted)
T3 construct: expressed in transfected cells
Description: as §1, §2, §3

T3 sequence (P43116 whole entry): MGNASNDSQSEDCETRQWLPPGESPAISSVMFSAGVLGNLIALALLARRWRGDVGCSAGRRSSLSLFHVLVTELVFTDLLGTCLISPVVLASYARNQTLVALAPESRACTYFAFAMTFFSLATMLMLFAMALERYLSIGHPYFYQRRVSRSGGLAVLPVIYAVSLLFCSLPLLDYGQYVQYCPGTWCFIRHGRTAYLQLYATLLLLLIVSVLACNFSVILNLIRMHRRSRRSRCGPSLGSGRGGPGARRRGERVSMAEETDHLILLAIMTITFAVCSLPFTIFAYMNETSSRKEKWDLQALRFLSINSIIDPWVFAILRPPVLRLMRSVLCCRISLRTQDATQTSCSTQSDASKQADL
T2 sequence (P35408 whole entry): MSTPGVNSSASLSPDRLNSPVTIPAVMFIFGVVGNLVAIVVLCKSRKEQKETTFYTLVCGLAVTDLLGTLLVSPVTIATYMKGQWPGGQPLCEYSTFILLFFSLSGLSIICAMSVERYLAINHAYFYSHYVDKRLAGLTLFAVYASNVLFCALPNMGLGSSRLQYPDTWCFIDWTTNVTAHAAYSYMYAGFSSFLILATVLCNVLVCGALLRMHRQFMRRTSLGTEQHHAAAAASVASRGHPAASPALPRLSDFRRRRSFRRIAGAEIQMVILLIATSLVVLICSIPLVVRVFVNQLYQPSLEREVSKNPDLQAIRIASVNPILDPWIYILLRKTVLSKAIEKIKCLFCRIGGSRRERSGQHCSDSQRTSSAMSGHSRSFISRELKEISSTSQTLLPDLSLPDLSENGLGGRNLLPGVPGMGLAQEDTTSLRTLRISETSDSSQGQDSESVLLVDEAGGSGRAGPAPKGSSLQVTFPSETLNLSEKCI

| Ki (human EP3 receptor) [µM] | Ki (human EP4 receptor) [µM] | Ki (human EP2 receptor) [µM] | SMILES |
| --- | --- | --- | --- |
| > 10 | < 0.1 | > 1 | Cc1oc(-c2ccc(OC(F)F)cc2)cc1C(=O)Nc1ccc(CC(=O)NS(=O)(=O)c2ccccc2F)cc1 [Compound 36, 5-(4-Difluoromethoxy-phenyl)-2-methyl-furan-3-carboxylic acid {4-[2-(2-fluoro-benzenesulfonylamino)-2-oxo-ethyl]-phenyl}-amide] |
| > 10 | < 0.1 | > 1 | Cc1oc(-c2ccc(OC(F)F)cc2)cc1C(=O)Nc1ccc(CC(=O)NS(=O)(=O)c2ccccc2)cc1 [Compound 25, 5-(4-Difluoromethoxy-phenyl)-2-methyl-furan-3-carboxylic acid [4-(2-benzenesulfonylamino-2-oxo-ethyl)-phenyl]-amide] |
| > 10 | < 0.1 | > 1 | COc1ccc(-c2cc(C(=O)Nc3ccc(CC(=O)NS(=O)(=O)c4ccccc4)cc3)c(C)o2)cc1 [Compound 23, 5-(4-Methoxy-phenyl)-2-methyl-furan-3-carboxylic acid [4-(2-benzenesulfonylamino-2-oxo-ethyl)-phenyl]-amide] |
| > 10 | < 0.1 | > 1 | Cc1oc(-c2ccc(OC(F)F)cc2)cc1C(=O)Nc1ccc(CC(=O)NS(=O)(=O)Cc2ccccc2)cc1 [Compound 31, 5-(4-Difluoromethoxy-phenyl)-2-methyl-furan-3-carboxylic acid [4-(2-oxo-2-phenylmethanesulfonylamino-ethyl)-phenyl]-amide] |
| > 10 | < 1 | > 0.1 | Cc1ccccc1S(=O)(=O)NC(=O)Cc1ccc(NC(=O)c2coc(-c3ccccc3)c2)cc1 [Compound 24, 5-Phenyl-furan-3-carboxylic acid {4-[2-oxo-2-(toluene-2-sulfonylamino)-ethyl]-phenyl}-amide] |
| > 10 | < 0.1 | > 3.16 | Cc1oc(-c2ccc(OC(F)F)cc2)cc1C(=O)Nc1ccc(CC(=O)NS(=O)(=O)c2ccc(O)cc2)cc1 [Compound 35, 5-(4-Difluoromethoxy-phenyl)-2-methyl-furan-3-carboxylic acid {4-[2-(4-hydroxy-benzenesulfonylamino)-2-oxo-ethyl]-phenyl}-amide] |
| > 10 | < 0.1 | > 1 | Cc1oc(-c2ccccc2)cc1C(=O)Nc1ccc(CC(=O)NS(=O)(=O)c2ccccc2)cc1 [Compound 21, 2-Methyl-5-phenyl-furan-3-carboxylic acid [4-(2-benzenesulfonylamino-2-oxo-ethyl)-phenyl]-amide] |
| > 10 | < 0.1 | > 0.316 | Cc1ccccc1S(=O)(=O)NC(=O)Cc1ccc(NC(=O)c2cc(-c3ccc(OC(F)F)cc3)oc2C)cc1 [Compound 26, 5-(4-Difluoromethoxy-phenyl)-2-methyl-furan-3-carboxylic acid {4-[2-oxo-2-(toluene-2-sulfonylamino)-ethyl]-phenyl}-amide] |
| > 10 | < 0.1 | > 3.16 | Cc1oc(-c2ccc(OC(F)F)cc2)cc1C(=O)Nc1ccc(CC(=O)NS(=O)(=O)c2cccs2)cc1 [Compound 29, 5-(4-Difluoromethoxy-phenyl)-2-methyl-furan-3-carboxylic acid {4-[2-oxo-2-(thiophene-2-sulfonylamino)-ethyl]-phenyl}-amide] |
| > 10 | < 1 | > 1 | COc1ccc(-c2cc(C(=O)Nc3ccc(CC(=O)NS(=O)(=O)c4ccccc4)cc3)c(C(F)(F)F)o2)cc1 [Compound 22, 5-(4-Methoxy-phenyl)-2-trifluoromethyl-furan-3-carboxylic acid [4-(2-benzenesulfonylamino-2-oxo-ethyl)-phenyl]-amide] |
| > 3.16 | < 0.1 | > 3.16 | Cc1oc(-c2ccc(OC(F)F)cc2)cc1C(=O)Nc1ccc(CC(=O)NS(=O)(=O)c2ccccc2C(F)(F)F)cc1 [Compound 32, 5-(4-Difluoromethoxy-phenyl)-2-methyl-furan-3-carboxylic acid {4-[2-oxo-2-(2-trifluoromethyl-benzenesulfonylamino)-ethyl]-phenyl}-amide] |

Further lines, the molecule ahead of its results:

| SMILES | Ki (human EP3 receptor) [µM] | Ki (human EP4 receptor) [µM] | Ki (human EP2 receptor) [µM] |
| --- | --- | --- | --- |
| O=C(O)Cc1ccc(NC(=O)c2coc(-c3ccc(OC(F)F)cc3)c2)cc1 [Compound 13, (4-{[5-(4-Difluoromethoxy-phenyl)-furan-3-carbonyl]-amino}-phenyl)-acetic acid] | > 10 | < 1 | > 10 |
| Cc1cc(C(=O)NCc2ccc(C(=O)O)cc2)c(-c2ccccc2)o1 [Compound 20, 4-{[(5-Methyl-2-phenyl-furan-3-carbonyl)-amino]-methyl}-benzoic acid] | > 10 | < 10 | > 10 |
| Cc1ccc(S(=O)(=O)NC(=O)Cc2ccc(NC(=O)c3cc(-c4ccc(OC(F)F)cc4)oc3C)cc2)nc1 [Compound 30, 5-(4-Difluoromethoxy-phenyl)-2-methyl-furan-3-carboxylic acid {4-[2-(5-methyl-pyridine-2-sulfonylamino)-2-oxo-ethyl]-phenyl}-amide] | > 10 | < 0.1 | > 1 |
| Cc1noc(C)c1S(=O)(=O)NC(=O)Cc1ccc(NC(=O)c2cc(-c3ccc(OC(F)F)cc3)oc2C)cc1 [Compound 28, 5-(4-Difluoromethoxy-phenyl)-2-methyl-furan-3-carboxylic acid {4-[2-(3,5-dimethyl-isoxazole-4-sulfonylamino)-2-oxo-ethyl]-phenyl}-amide] | > 10 | < 1 | > 10 |
| COc1ccc(-c2cc(C(=O)Nc3ccc(CC(=O)O)cc3)c(C)o2)cc1 [Compound 6, (4-{[5-(4-Methoxy-phenyl)-2-methyl-furan-3-carbonyl]-amino}-phenyl)-acetic acid] | > 10 | < 1 | > 10 |
| CCCS(=O)(=O)NC(=O)Cc1ccc(NC(=O)c2cc(-c3ccc(OC(F)F)cc3)oc2C)cc1 [Compound 27, 5-(4-Difluoromethoxy-phenyl)-2-methyl-furan-3-carboxylic acid {4-[2-oxo-2-(propane-1-sulfonylamino)-ethyl]-phenyl}-amide] | > 10 | < 1 | > 10 |
| O=C(O)Cc1ccc(NC(=O)c2coc(-c3ccccc3)c2)cc1 [Compound 10, {4-[(5-Phenyl-furan-3-carbonyl)-amino]-phenyl}-acetic acid] | > 10 | < 1 | > 3.16 |
| Cc1oc(-c2ccc(OC(F)F)cc2)cc1C(=O)Nc1ccc(CC(=O)O)cc1 [Compound 18, (4-{[5-(4-Difluoromethoxy-phenyl)-2-methyl-furan-3-carbonyl]-amino}-phenyl)-acetic acid] | > 10 | < 1 | > 3.16 |
| COc1ccc(-c2cc(C(=O)Nc3ccc(CC(=O)O)cc3)c(C(F)(F)F)o2)cc1 [Compound 4, (4-{[5-(4-Methoxy-phenyl)-2-trifluoromethyl-furan-3-carbonyl]-amino}-phenyl)-acetic acid] | > 10 | < 10 | > 10 |
